Earlier results on one molecule are cited in publication PMC13517605, “In Vitro Three-Dimensional Human Liver Model for Drug-Induced Liver and Bile Duct Injury Prediction” (Toxics, 2026).

The conditions of this data set: maximum plasma concentration in humans.

For the molecule `[H]/N=C(/N)N[C@H]1[C@H](O)[C@@H](O)[C@H](O[C@@H]2O[C@@H](C)[C@](O)(C=O)[C@H]2O[C@@H]2O[C@@H](CO)[C@H](O)[C@@H](O)[C@@H]2NC)[C@@H](N/C(N)=N\[H])[C@@H]1O` [Streptomycin, streptomycin], the Cmax (usually the highest concentration seen after dosing) is 52.3 µM.
